{
  "source": "the supplement of paper PMC6045584",
  "key": {"SUNITINIB": {"compound": "CCN(CC)CCNC(=O)c1c(C)[nH]c(/C=C2\\C(=O)Nc3ccc(F)cc32)c1C [SUNITINIB]", "test": "surviving fraction relative to DMSO-only wells; higher = less growth inhibition", "conditions": "exposure time: 5 days", "summary_of_the_method": "(§1)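 For each tumour cell line, log-phase cells were put into 384-well plates at 250–500 cells per well, then after 24 hours exposed continuously for five days to inhibitors at 0.5, 1, 5, 10, 50, 100, 500 and 1000 nM. Viability was assessed by CellTiter-Glo luminescence, with surviving fraction expressed relative to the median of DMSO-only wells. Lines were screened three times and retained only if replicate Pearson r exceeded 0.7 and median Z' exceeded 0.3.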"}, "MK2206": {"compound": "NC1(c2ccc(-c3nc4ccn5c(=O)[nH]nc5c4cc3-c3ccccc3)cc2)CCC1 [MK2206]", "test": "surviving fraction relative to DMSO-only wells; higher = less growth inhibition", "conditions": "exposure time: 5 days", "summary_of_the_method": "as §1"}},
  "note": "± gives the standard deviation of the averaged measurements.",
  "data": [
    {"test system": "PCI30 HEADNECK", "values": [
      {"measurement": "surviving fraction", "setting": "SUNITINIB; 0.5 nM", "value": "0.949 ± 0.075"},
      {"measurement": "surviving fraction", "setting": "SUNITINIB; 1 nM", "value": "0.936 ± 0.033"},
      {"measurement": "surviving fraction", "setting": "SUNITINIB; 10 nM", "value": "1.13 ± 0.05"},
      {"measurement": "surviving fraction", "setting": "SUNITINIB; 50 nM", "value": "1.38 ± 0.064"},
      {"measurement": "surviving fraction", "setting": "SUNITINIB; 100 nM", "value": "1.45 ± 0.19"},
      {"measurement": "surviving fraction", "setting": "SUNITINIB; 500 nM", "value": "1.2 ± 0.033"},
      {"measurement": "surviving fraction", "setting": "SUNITINIB; 1000 nM", "value": "1.03 ± 0.052"},
      {"measurement": "surviving fraction", "setting": "MK2206; 0.5 nM", "value": "0.999 ± 0.021"},
      {"measurement": "surviving fraction", "setting": "MK2206; 1 nM", "value": "1.03 ± 0.13"},
      {"measurement": "surviving fraction", "setting": "MK2206; 5 nM", "value": "1.01 ± 0.027"},
      {"measurement": "surviving fraction", "setting": "MK2206; 10 nM", "value": "1.07 ± 0.035"},
      {"measurement": "surviving fraction", "setting": "MK2206; 50 nM", "value": "0.939 ± 0.039"},
      {"measurement": "surviving fraction", "setting": "MK2206; 100 nM", "value": "0.874 ± 0.045"},
      {"measurement": "surviving fraction", "setting": "MK2206; 500 nM", "value": "0.592 ± 0.033"},
      {"measurement": "surviving fraction", "setting": "MK2206; 1000 nM", "value": "0.483 ± 0.017"}
    ]},
    {"test system": "RDES SOFT TISSUE", "values": [
      {"measurement": "surviving fraction", "setting": "SUNITINIB; 0.5 nM", "value": "0.851 ± 0.24"},
      {"measurement": "surviving fraction", "setting": "SUNITINIB; 1 nM", "value": "0.741 ± 0.2"},
      {"measurement": "surviving fraction", "setting": "SUNITINIB; 5 nM", "value": "0.794 ± 0.11"},
      {"measurement": "surviving fraction", "setting": "SUNITINIB; 10 nM", "value": "0.794 ± 0.12"},
      {"measurement": "surviving fraction", "setting": "SUNITINIB; 100 nM", "value": "1.08 ± 0.19"},
      {"measurement": "surviving fraction", "setting": "SUNITINIB; 500 nM", "value": "1.17 ± 0.17"},
      {"measurement": "surviving fraction", "setting": "SUNITINIB; 1000 nM", "value": "0.567 ± 0.099"},
      {"measurement": "surviving fraction", "setting": "MK2206; 0.5 nM", "value": "1.14 ± 0.04"},
      {"measurement": "surviving fraction", "setting": "MK2206; 1 nM", "value": "1.27 ± 0.13"},
      {"measurement": "surviving fraction", "setting": "MK2206; 5 nM", "value": "1.22 ± 0.074"},
      {"measurement": "surviving fraction", "setting": "MK2206; 10 nM", "value": "1.13 ± 0.032"},
      {"measurement": "surviving fraction", "setting": "MK2206; 50 nM", "value": "1.06 ± 0.062"},
      {"measurement": "surviving fraction", "setting": "MK2206; 100 nM", "value": "1.17 ± 0.1"},
      {"measurement": "surviving fraction", "setting": "MK2206; 500 nM", "value": "1.2 ± 0.066"},
      {"measurement": "surviving fraction", "setting": "MK2206; 1000 nM", "value": "1.104 ± 0.0067"}
    ]},
    {"test system": "S68 BREAST", "values": [
      {"measurement": "surviving fraction", "setting": "SUNITINIB; 0.5 nM", "value": "0.716 ± 0.13"},
      {"measurement": "surviving fraction", "setting": "SUNITINIB; 1 nM", "value": "0.674 ± 0.15"},
      {"measurement": "surviving fraction", "setting": "SUNITINIB; 10 nM", "value": "0.74 ± 0.18"},
      {"measurement": "surviving fraction", "setting": "SUNITINIB; 50 nM", "value": "1.07 ± 0.098"},
      {"measurement": "surviving fraction", "setting": "SUNITINIB; 100 nM", "value": "0.98 ± 0.13"},
      {"measurement": "surviving fraction", "setting": "SUNITINIB; 500 nM", "value": "0.709 ± 0.065"},
      {"measurement": "surviving fraction", "setting": "SUNITINIB; 1000 nM", "value": "0.488 ± 0.1"},
      {"measurement": "surviving fraction", "setting": "MK2206; 0.5 nM", "value": "1.15 ± 0.26"},
      {"measurement": "surviving fraction", "setting": "MK2206; 1 nM", "value": "0.874 ± 0.16"},
      {"measurement": "surviving fraction", "setting": "MK2206; 5 nM", "value": "1.15 ± 0.22"},
      {"measurement": "surviving fraction", "setting": "MK2206; 10 nM", "value": "1.14 ± 0.17"},
      {"measurement": "surviving fraction", "setting": "MK2206; 50 nM", "value": "0.974 ± 0.22"},
      {"measurement": "surviving fraction", "setting": "MK2206; 100 nM", "value": "0.619 ± 0.088"},
      {"measurement": "surviving fraction", "setting": "MK2206; 500 nM", "value": "0.229 ± 0.028"},
      {"measurement": "surviving fraction", "setting": "MK2206; 1000 nM", "value": "0.156 ± 0.044"}
    ]},
    {"test system": "SAOS2 BONE", "values": [
      {"measurement": "surviving fraction", "setting": "SUNITINIB; 0.5 nM", "value": "0.792 ± 0.052"},
      {"measurement": "surviving fraction", "setting": "SUNITINIB; 1 nM", "value": "0.691 ± 0.088"},
      {"measurement": "surviving fraction", "setting": "SUNITINIB; 10 nM", "value": "0.692 ± 0.073"},
      {"measurement": "surviving fraction", "setting": "SUNITINIB; 50 nM", "value": "0.985 ± 0.064"},
      {"measurement": "surviving fraction", "setting": "SUNITINIB; 100 nM", "value": "0.863 ± 0.093"},
      {"measurement": "surviving fraction", "setting": "SUNITINIB; 500 nM", "value": "0.301 ± 0.046"},
      {"measurement": "surviving fraction", "setting": "SUNITINIB; 1000 nM", "value": "0.154 ± 0.0052"},
      {"measurement": "surviving fraction", "setting": "MK2206; 0.5 nM", "value": "1.08 ± 0.055"},
      {"measurement": "surviving fraction", "setting": "MK2206; 1 nM", "value": "1.13 ± 0.041"},
      {"measurement": "surviving fraction", "setting": "MK2206; 5 nM", "value": "1.15 ± 0.021"},
      {"measurement": "surviving fraction", "setting": "MK2206; 10 nM", "value": "1.14 ± 0.044"},
      {"measurement": "surviving fraction", "setting": "MK2206; 50 nM", "value": "0.965 ± 0.063"},
      {"measurement": "surviving fraction", "setting": "MK2206; 100 nM", "value": "0.925 ± 0.041"},
      {"measurement": "surviving fraction", "setting": "MK2206; 500 nM", "value": "0.676 ± 0.019"},
      {"measurement": "surviving fraction", "setting": "MK2206; 1000 nM", "value": "0.654 ± 0.038"}
    ]}
  ]
}
